One may read the Ki as a dissociation constant, usually derived from enzyme kinetics or from competition with a known ligand. Usually melting point stands for the temperature of the solid-liquid transition.

Where two headings read alike, the source gives them in different places. Bounds are passed on as bounds.

This is an account of results in patent publication US6653300B2, “Pyrazole compounds useful as protein kinase inhibitors” (Vertex Pharmaceuticals Incorporated, priority 2000, dated 2003).

The target of data set [1] is T1, human Src kinase (Homo sapiens, UniProt P12931).
T1 construct: full length recombinant human Src kinase (from Upstate Biotechnology, cat. no. 14-117); purchased Upstate Biotechnology 14-117; host or cells: baculo viral cells
T1 sequence (P12931 whole entry): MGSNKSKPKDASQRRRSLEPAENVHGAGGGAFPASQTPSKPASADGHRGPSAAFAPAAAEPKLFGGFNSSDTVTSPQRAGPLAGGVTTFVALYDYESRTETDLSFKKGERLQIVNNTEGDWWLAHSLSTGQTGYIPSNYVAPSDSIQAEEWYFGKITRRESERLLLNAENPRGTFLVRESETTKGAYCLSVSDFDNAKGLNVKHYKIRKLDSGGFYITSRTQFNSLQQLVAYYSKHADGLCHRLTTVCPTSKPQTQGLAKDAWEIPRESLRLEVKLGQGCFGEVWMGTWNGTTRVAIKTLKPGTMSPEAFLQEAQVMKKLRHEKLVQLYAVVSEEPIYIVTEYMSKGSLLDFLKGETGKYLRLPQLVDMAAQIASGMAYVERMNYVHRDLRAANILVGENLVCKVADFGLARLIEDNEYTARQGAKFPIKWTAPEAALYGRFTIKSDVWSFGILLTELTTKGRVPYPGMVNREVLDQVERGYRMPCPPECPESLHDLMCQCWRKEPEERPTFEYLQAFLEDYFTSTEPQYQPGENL
The data set can be described thus: SRC inhibition assay (radioactivity-based or spectrophotometric assay). The class given is biochemical. Conditions: recombinant human Src kinase, assay A or B. The procedure: The compounds were evaluated as inhibitors of human Src kinase using either a radioactivity-based assay or spectrophotometric assay. The compounds were assayed as inhibitors of full length recombinant human Src kinase (from Upstate Biotechnology, cat. no. 14-117) expressed and purified from baculo viral cells. […] P-0275). […] In a typical assay, all the reaction components with the exception of ATP were pre-mixed and aliquoted into assay plate wells. […] The assay plate was incubated at 30° C. for 10 min before initiating the reaction with ^33P-ATP. After 20 min of reaction, the reactions were quenched with 150 μl of 10% trichloroacetic acid (TCA) containing 20 mM Na3PO4. The quenched samples were then transferred to a 96-well filter plate (Whatman, UNI-Filter GF/F Glass Fiber Filter, cat no. 7700-3310) installed on a filter plate vacuum manifold. Filter plates were washed four times with 10% TCA containing 20 mM Na3PO4 and then 4 times with methanol. 200 μl of scintillation fluid was then added to each well. The plates were sealed and the amount of radioactivity associated with the filters was quantified on a TopCount scintillation counter. The radioactivity incorporated was plotted as a function of the inhibitor concentration. The data was fitted to a competitive inhibition kinetics model to get the Ki for the compound. The ADP produced from ATP by the human recombinant Src kinase-catalyzed phosphorylation of poly Glu-Tyr substrate was quanitified using a coupled enzyme assay (Fox et al (1998) Protein Sci 7, 2249). In this assay one molecule of NADH is oxidised to NAD for every molecule of ADP produced in the kinase reaction. The disappearance of NADH can be conveniently followed at 340 nm. […] In a typical assay, all the reaction components with the exception of ATP were pre-mixed and aliquoted into assay plate wells. […] The absorbance change at 340 nm with time, the rate of the reaction, was monitored on a molecular devices plate reader. The data of rate as a function of the inhibitor concentration was fitted to competitive inhibition kinetics model to get the Ki for the compound.

Data set [2] concerns the target T2, Aurora-2 (Homo sapiens, UniProt O14965).
T2 sequence (O14965 1-403): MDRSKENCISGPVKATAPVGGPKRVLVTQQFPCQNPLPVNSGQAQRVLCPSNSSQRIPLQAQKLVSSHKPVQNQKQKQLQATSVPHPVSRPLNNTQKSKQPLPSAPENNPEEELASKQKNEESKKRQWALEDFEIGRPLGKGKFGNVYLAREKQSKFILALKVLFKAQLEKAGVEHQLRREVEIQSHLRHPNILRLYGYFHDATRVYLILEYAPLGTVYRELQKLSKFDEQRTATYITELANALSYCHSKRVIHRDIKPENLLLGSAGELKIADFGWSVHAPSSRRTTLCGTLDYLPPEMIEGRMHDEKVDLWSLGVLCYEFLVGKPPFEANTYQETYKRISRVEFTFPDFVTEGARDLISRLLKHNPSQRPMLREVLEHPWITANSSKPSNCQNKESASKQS
The data set can be described thus: Ki determination for the inhibition of Aurora-2 (coupled enzyme assay). The data set is classed as biochemical. Conditions: 70 nM Aurora-2, 30° C. The procedure, abridged: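 Ki came from reaction rates plotted against inhibitor concentration, with rates taken as A340 decrease over 5 min at 30° C. Enzyme (70 nM final) was added after 10 min compound preincubation; stock buffer held […], 800 μM LRRASLG, PK/LDH coupling, pH 7.5.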

The target of data set [3] is T3, GSK-3β (AA 1-420) (Homo sapiens, UniProt P49841).
T3 construct: GSK-3β (AA 1-420)
T3 sequence (P49841 whole entry, the tested form may be a part): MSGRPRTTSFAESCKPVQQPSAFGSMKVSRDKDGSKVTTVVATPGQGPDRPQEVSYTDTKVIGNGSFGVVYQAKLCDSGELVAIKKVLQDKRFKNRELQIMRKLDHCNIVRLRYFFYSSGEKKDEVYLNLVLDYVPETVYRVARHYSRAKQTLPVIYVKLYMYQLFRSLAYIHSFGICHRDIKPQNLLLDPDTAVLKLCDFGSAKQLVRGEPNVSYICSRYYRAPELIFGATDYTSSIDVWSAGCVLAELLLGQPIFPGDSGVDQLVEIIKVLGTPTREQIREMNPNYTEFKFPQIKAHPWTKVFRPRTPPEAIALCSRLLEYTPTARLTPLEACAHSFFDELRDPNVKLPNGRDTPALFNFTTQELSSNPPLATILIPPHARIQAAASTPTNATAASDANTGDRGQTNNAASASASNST
The data set can be described thus: Ki determination for the inhibition of GSK-3 (coupled enzyme system). The data set is classed as biochemical. Conditions: 20 μM ATP, 20 nM GSK-3β, 30° C. The gist of the method:
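GSK-3β (AA 1-420, 20 nM) was run in a pyruvate kinase/LDH-coupled NADH assay in 100 mM HEPES pH 7.5, 10 mM MgCl2, 25 mM NaCl, 1 mM DTT, 1.5% DMSO, with 300 μM phosphopeptide substrate. Compound (0.002–30 μM) was preincubated 10 min at 30° C, then 20 μM ATP was added.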

In the case of `Cc1cc(Nc2nc(Sc3ccc(NS(=O)(=O)C(C)C)cc3)nc3ccccc23)n[nH]1` [IIa-48, [2-(4-Isopropanesulfonylamino-phenylsulfanyl)-quinazolin-4-yl]-(5-methyl-2H-pyrazol-3-yl)-amine], the melting point is 294 to 297 °C. For the same compound, the Ki in data set [1] (read-out: Ki value for SRC) was in the range of 1000 to 6000 nM. Further, the Ki in data set [2] was under 100 nM. The compound also yielded a Ki in data set [3] of 100 to 1000 nM.
Consider `CCS(=O)(=O)Nc1ccc(Sc2nc(Nc3cc(C)[nH]n3)c3ccccc3n2)cc1` [IIa-55, [2-(4-Ethylsulfonylamino-phenylsulfanyl)-quinazolin-4-yl]-(5-methyl-2H-pyrazol-3-yl)-amine], for which the melting point is 279 to 280 °C. The inhibition constant (Ki) in data set [1] (read-out: Ki value for SRC) lay in the range of 1000 to 6000 nM. This compound had a Ki in data set [2] of under 100 nM. In data set [3], this compound showed a Ki of 100 to 1000 nM.
Consider `Cc1cc(Nc2nc(Sc3ccc(C(=O)NCCN4CCOCC4)cc3)nc3ccccc23)n[nH]1` [IIa-65, (5-Methyl-2H-pyrazol-3-yl)-{2-[4-(2-morpholin-4-yl-ethylcarbamoyl)-phenylsulfanyl]-quinazolin-4-yl}-amine], for which the melting point lay within 246 to 248 °C. The Ki in data set [1] (read-out: Ki value for SRC) lay in the range of 1000 to 6000 nM. In data set [2], this compound yielded a Ki of 100 to 1000 nM. In data set [3], the Ki fell in the range of 1000 to 7000 nM.
Regarding `Cc1cc(Nc2nc(Sc3ccc(NC(=O)CN(C)C)cc3)nc3ccccc23)n[nH]1` [IIa-68, {2-[4-(2-Dimethylamino-acetylamino)-phenylsulfanyl]-quinazolin-4-yl}-(5-methyl-2H-pyrazol-3-yl)-amine], the melting point lay within 241 to 243 °C. The inhibitory constant (Ki) in data set [1] (read-out: Ki value for SRC) was 1000 to 6000 nM. In data set [2], this compound returned a Ki of under 100 nM. Further, the Ki in data set [3] fell in the range of 1000 to 7000 nM.
On to `Cc1cc(Nc2nc(Sc3ccc(NC(=O)CCN(C)C)cc3)nc3ccccc23)n[nH]1` [IIa-71, {2-[4-(3-Dimethylamino-propionylamino)-phenylsulfanyl]-quinazolin-4-yl}-(5-methyl-2H-pyrazol-3-yl)-amine], for which the melting point is 280 °C (dec.). For the same compound, in data set [1] (read-out: Ki value for SRC), the Ki is 1000 to 6000 nM. This compound also yielded a Ki in data set [2] of under 100 nM. The Ki in data set [3] is 1000 to 7000 nM.
In turn, `CC(=O)Nc1ccc(Sc2nc(Nc3cc(C)[nH]n3)c3ccc(O)cc3n2)cc1` [IIa-74, [2-(4-Acetamidophenylsulfanyl)-7-hydroxy-quinazolin-4-yl]-(5-methyl-2H-pyrazol-3-yl)-amine] registered a melting point of 246 to 248 °C. Further, the inhibitory constant (Ki) in data set [1] (read-out: Ki value for SRC) lay in the range of 1000 to 6000 nM. In data set [2], this compound returned a Ki of under 100 nM. The compound further gave a Ki in data set [3] of 1000 to 7000 nM.
Compound `CNCC(=O)Nc1ccc(Sc2nc(Nc3cc(C)[nH]n3)c3ccccc3n2)cc1` [IIa-77, {2-[4-(2-Methylamino-acetylamino)-phenylsulfanyl]-quinazolin-4-yl}-(5-methyl-2H-pyrazol-3-yl)-amine] came in with a melting point of 242 to 244 °C. The Ki in data set [1] (read-out: Ki value for SRC) fell in the range of 1000 to 6000 nM. In data set [2], this compound came in with a Ki of under 100 nM. The same compound had a Ki in data set [3] of 1000 to 7000 nM.
With `c1ccc2cc(Oc3nc(Nc4cc(C5CC5)[nH]n4)c4ccccc4n3)ccc2c1` [IIb-1, (5-Cyclopropyl-2H-pyrazol-3-yl)-[2-(naphthalen-2-yloxy)-quinazolin-4-yl]-amine], the melting point fell in the range of 327 to 328 °C. The Ki in data set [1] (read-out: Ki value on SRC) was under 100 nM. The compound further registered a Ki in data set [2] of under 100 nM. In addition, the Ki in data set [3] is under 100 nM.
With `Cc1cccc(Oc2nc(Nc3cc(C4CC4)[nH]n3)c3ccccc3n2)c1` [IIb-5, (5-Cyclopropyl-2H-pyrazol-3-yl)-[2-(3-methylphenoxy)-quinazolin-4-yl]-amine], the melting point lay within 283 to 284 °C. In addition, the Ki in data set [1] (read-out: Ki value on SRC) was under 100 nM. In addition, the Ki in data set [2] is under 100 nM. This compound registered an inhibition constant Ki in data set [3] of under 100 nM.
Consider `CN(Cc1cccnc1)c1nc(Nc2cc(C3CC3)[nH]n2)c2ccccc2n1` [IIc-3], for which the melting point was found to be 177 °C. Moreover, the Ki in data set [1] (read-out: Ki value on SRC) was under 100 nM. In data set [2], this compound had a Ki of under 100 nM. The Ki in data set [3] is under 100 nM.
Compound `Cc1cc(Nc2nc(NCC3CCCCC3)nc3ccccc23)n[nH]1` [IIc-8, (2-Cyclohexylmethylamino-quinazolin-4-yl)-(5-methyl-2H-pyrazol-3-yl)-amine] had a melting point of 211 °C. In data set [1] (read-out: Ki value on SRC), the Ki is under 100 nM. Besides, the Ki in data set [2] was under 100 nM. The same compound displayed a Ki in data set [3] of under 100 nM.
In turn, `Cc1cc(Nc2nc(NCc3cccnc3)nc3ccccc23)n[nH]1` [IIc-10, (5-Methyl-2H-pyrazol-3-yl)-[2-(pyridin-3-ylmethylamino)-quinazolin-4-yl]-amine] yielded a melting point of 218 °C. Besides, the Ki in data set [1] (read-out: Ki value on SRC) is under 100 nM. Moreover, in data set [2], the Ki was under 100 nM. In data set [3], this compound yielded an inhibition constant (Ki) of under 100 nM.
`Cc1cccc(Nc2nc(Nc3cc(C4CC4)[nH]n3)c3ccccc3n2)c1` [IIc-19, (5-Cyclopropyl-2H-pyrazol-3-yl)-[2-(3-methylphenylamino)-quinazolin-4-yl]-amine]: the melting point was determined as 117 °C. In addition, in data set [1] (read-out: Ki value on SRC), the inhibitory constant (Ki) was under 100 nM. This compound also showed a Ki in data set [2] of under 100 nM. The same compound gave a Ki in data set [3] of 100 to 1000 nM.
Consider `c1ccc2c(Nc3cc(C4CC4)[nH]n3)nc(Nc3ccc4c(c3)CCC4)nc2c1` [IIc-21, (5-Cyclopropyl-2H-pyrazol-3-yl)-[2-(indan-5-ylamino)-quinazolin-4-yl]-amine], for which the melting point lay within 199 to 204 °C. In addition, the Ki in data set [1] (read-out: Ki value on SRC) was under 100 nM. The compound further displayed a Ki in data set [2] of under 100 nM. Besides, the Ki in data set [3] is under 100 nM.
As for `CC(=O)Nc1ccc(Nc2nc(Nc3cc(C4CC4)[nH]n3)c3ccccc3n2)cc1C` [IIc-23, [2-(4-Acetamido-3-methylphenylamino)-quinazolin-4-yl]-(5-cyclopropyl-2H-pyrazol-3-yl)-amine], the melting point is > 188 °C (dec.). Also, the Ki in data set [1] (read-out: Ki value on SRC) was under 100 nM. In data set [2], the inhibition constant Ki is under 100 nM. The Ki in data set [3] fell in the range of 100 to 1000 nM.
In turn, `Cc1cc(Nc2nc(Nc3cc(C4CC4)[nH]n3)c3ccccc3n2)ccc1Cl` [IIc-24, [2-(4-Chloro-3-methylphenylamino)-quinazolin-4-yl]-(5-cyclopropyl-2H-pyrazol-3-yl)-amine] returned a melting point of 244 to 246 °C. Also, the inhibitory constant (Ki) in data set [1] (read-out: Ki value on SRC) was under 100 nM. The compound also registered a Ki in data set [2] of under 100 nM. Besides, in data set [3], the Ki is under 100 nM.
The compound `Cc1ccc(Nc2nc(Nc3cc(C4CC4)[nH]n3)c3ccccc3n2)cc1C` [IIc-33, (5-Cyclopropyl-2H-pyrazol-3-yl)-[2-(3,4-dimethylphenylamino)-quinazolin-4-yl]-amine] yielded a melting point of 245 to 246 °C. Further, the Ki in data set [1] (read-out: Ki value on SRC) is under 100 nM. In data set [2], this compound came in with a Ki of under 100 nM. The compound further displayed a Ki in data set [3] of 100 to 1000 nM.
`c1ccc(OCCNc2nc(Nc3cc(C4CC4)[nH]n3)c3ccccc3n2)cc1` [IIc-34, (5-Cyclopropyl-2H-pyrazol-3-yl)-[2-(2-phenoxyethylamino)-quinazolin-4-yl]-amine] yielded a melting point of 203 °C. Moreover, the Ki in data set [1] (read-out: Ki value on SRC) is under 100 nM. This compound displayed an inhibitory constant (Ki) in data set [2] of under 100 nM. The compound further showed a Ki in data set [3] of 100 to 1000 nM.
Compound `c1csc(CNc2nc(Nc3cc(C4CC4)[nH]n3)c3ccccc3n2)c1` [IIc-35, (5-Cyclopropyl-2H-pyrazol-3-yl)-[2-(thiophen-2-methylamino)-quinazolin-4-yl]-amine] displayed a melting point of 212 °C. Also, in data set [1] (read-out: Ki value on SRC), the Ki is under 100 nM. The Ki in data set [2] was under 100 nM. The Ki in data set [3] was under 100 nM.
